For experiment [1], the target named is T1, PPARγ (Homo sapiens, UniProt P37231).
T1 construct: gene PPARG
T1 sequence (P37231 235-505 limits assumed): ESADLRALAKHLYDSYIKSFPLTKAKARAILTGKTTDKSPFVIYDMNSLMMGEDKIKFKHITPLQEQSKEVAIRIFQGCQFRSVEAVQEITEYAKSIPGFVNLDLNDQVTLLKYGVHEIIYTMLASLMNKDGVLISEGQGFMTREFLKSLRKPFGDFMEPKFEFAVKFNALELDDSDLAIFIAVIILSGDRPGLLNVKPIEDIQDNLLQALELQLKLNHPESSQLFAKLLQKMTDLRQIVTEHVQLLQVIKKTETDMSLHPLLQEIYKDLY
The experiment is described as follows: intact-protein LC-ESI-MS, covalent control (data not shown). The class given is binding.

For experiment [2], the target named is T1, PPARγ. The experiment is described as follows: competitive fluorescence polarization (PolarScreen PPARγ green kit); LC-MS shows no covalent adduct. The class given is binding. (In general: Fluorescence polarisation rises when a labelled molecule tumbles more slowly, as on binding a larger partner.)

Molecules are shown by their SMILES.

Consider `O=C(Nc1ccccc1)c1cc([N+](=O)[O-])ccc1Cl` [GW9662], for which the “intact-protein LC-ESI-MS, covalent control (data not shown)” value at PPARγ [1] was “Dithio-bis (2-nitrobenzoic acid) and GW9662, were also confirmed bind to PPARγ irreversibly (data not shown)”.

In turn, `CCCCCCCCCCC[C@@H](C[C@@H]1OC(=O)[C@H]1CCCCCC)OC(=O)[C@H](CC(C)C)NC=O` [Orlistat] came in with a 50% inhibitory concentration (IC50) at PPARγ [2] of 2840 nM.

What is called IC50 is the concentration that inhibits the measured activity by half. A high value points to lower potency.

Values taken from publication PMC3681555, “PPARγ as a sensor of lipase activity and a target for the lipase inhibitor orlistat” (Lipids in Health and Disease, 2013).
